Test results from patent US20250134895A1, “METHODS AND COMPOSITIONS FOR TREATING ALPHA-SYNUCLEIN-MEDIATED NEURODEGENERATION” (UNIVERSITY HEALTH NETWORK, priority 2021, published 2025).

What was measured:
[1] = biological target: α-synuclein oligomers (Homo sapiens, UniProt P37840); test: Venus YFP protein-fragment complementation assay in rat primary cortical neurons; assay type: cell-based; conditions: 10 μM, 72 hours
Description: Specifically, adeno-associated viral vectors (AAV) were used to co-express human α-synuclein tagged with the N- or C-terminal half of Venus yellow fluorescent protein (YFP) in rat cortical neurons.
Pregnant Sprague Dawley rats (E17) were purchased from Charles River. Embryos were surgically removed, and neurons were harvested in a sterile environment. Neurons were plated on poly-D-lysine coated glass coverslips at a density of 5×10^5 cells per well in Neurobasal-A medium, (Gibco, 10888022) supplemented with B27 (2%) (Gibco, 17504044), antibiotic-antimycotic (1%) (Gibco, 15240062), and Glutamax (1%) (Gibco, 35050061). Fifty percent media changes were performed every 3 days. […] Two days post isolation, neurons were co-transduced with AAV-V1 S and AAV-SV2 or transduced with AAV-Venus alone at a MOI of 3,000. […] Concentrations were selected to avoid neuron toxicity according to previous reports.^57-61 Drug-containing media was removed, and cells were washed 1 time with ice-cold PBS before being fixed with 4% PFA (Sigma) at room temperature for 10 minutes. Levels of α-synuclein oligomers were measured by YFP fluorescence. […] YFP fluorescence intensity was analysed automatically using Imaris imaging software (Oxford Instruments). […]

[2] = system: transgenic A30P α-synuclein C. elegans; test: Coiler score and locomotion of C. elegans expressing A30P α-synuclein in dopaminergic neurons; assay type: in vivo, Caenorhabditis elegans
Description: Using high-resolution, multi-worm tracking with custom image processing, methods were developed for semi-automated and blinded scoring of circularity for a population of simultaneously recorded animals (n=10 per recording). A coiler score was determined for the population tested by first calculating the circularity value for each animal in each frame of video and then calculating the proportion of circularity values >0.6. […] The coiler phenotype is an abnormal motor behaviour previously reported for several unc C. elegans strains with mutations affecting neuronal function.
Animals were synchronized by isolating eggs using alkaline hypochlorite treatment and hatching overnight. Larvae were plated onto NGM agar plates with OP50 and grown for 4 days before recording locomotion. For individual C. elegans recordings, a single adult animal was randomly picked, washed for 1 to 2 minutes in M9 buffer, and then transferred to a fresh NGM plate without food for imaging. Video images were acquired (2 frames per second) for up to 6 minutes using a sCMOS camera (pco.edge, PCO) mounted on a stereomicroscope (Olympus MVX10 MacroView) controlled using the μManager software.^55 A total of 40 individual animals were imaged for each strain. For C. elegans population recordings, ten adult animals were randomly removed using an eyelash pick, washed for 1 minute in M9 buffer, and then transferred to a fresh NGM plate without food, with a ring of copper sulfate solution (150 mM) around the area of recording (a chemorepellent to keep the animals in the recording frame). Exploratory locomotion was recorded using a CCD camera (GX1920, Allied Vision) which was attached to a dissecting stereomicroscope (Leica M165C, 1.0× PlanApo lens). A Labview program captured video (2 frames per second) at 1936×1456 resolution. Using ImageJ, the displacement, perimeter, and area of each animal was calculated, from which a circularity value was computed using the following formula: circularity=4π(A/P^2), where A is the area of the animal's body and P is the perimeter of the animal's body (both expressed in arbitrary pixel units). […] Using MATLAB (Mathworks), various behavioural metrics including the coiler score were calculated, which is the percentage of frames with a circularity value >0.6. Speed was automatically computed from the ImageJ based WrmTrk plugin as the distance travelled by each animal (in pixels) over the amount of time that it was tracked (in seconds).56 Average speed was determined by calculating the weighted average of each tracked animal's speed within a single population of animals. On the day of the recording for dopamine or raclopride treatment, adult animals were washed for 1 minute in M9 buffer, treated in a solution containing either drug for 1 minute, and then placed onto fresh NGM plates without food, with a copper sulfate solution ring around the area of recording. […] Drug plates were prepared by adding each drug to LB medium with OP50 before spreading onto fresh NGM plates. The solvent used to dissolve each drug was used as vehicle control for the drug treatment experiments (M9 buffer for dopamine, distilled water for raclopride, DMSO for all other drugs).
After 72 hours of drug treatment, animals were randomly picked, washed, and recorded. A total of ten worms were recorded per population, and twelve populations were recorded for each of the four treatment groups. Locomotion was recorded for each population over a total of 1800 frames over three minutes. The animal's movement speed, area, and perimeter were automatically analyzed as previously described. Coiler score was calculated automatically using a ratio of the animal's area to perimeter, where a higher coiler score would represent a greater degree of α-synuclein-induced dopaminergic neuron dysfunction in vivo.

[3] = system: full-length Gaussia princeps luciferase; test: Activity of full-length Gaussia luciferase alone in H4 cells; assay type: cell-based; conditions: 10 μM, FIG. 14
Description: For controls in this assay, vehicle (i.e., DMSO), rapamycin, and bafilomycin A were used. Rapamycin, or sirolimus, is a small molecule that activates autophagy by inhibiting mTOR (mammalian target of rapamycin). […] To test this possibility, cells expressing α-synuclein were treated with each of the compounds and a cell permeable, resazurin-based assay was used to test for cell viability.
H4 neuroglioma cells (ATCC, HTB-148) were maintained in Dulbecco's Modified Eagle Medium plus high glucose, L-glutamine, and sodium pyruvate (ThermoFisher, 11995-065) with 10% heat-inactivated fetal bovine serum (ThermoFisher, 16140071) and 1% antibiotic-antimycotic cocktail (ThermoFisher, 15240062) at 37° C. and 5% CO2. DNA expression constructs encoding for full-length human α-synuclein fused to the N-terminal fragment of Gaussia princeps luciferase (syn-luc1), full-length human α-synuclein fused to the C-terminal fragment of Gaussia princeps luciferase (syn-luc2), and full-length Gaussia princeps luciferase were kindly provided by Dr. Pamela McLean, Mayo Clinic Jacksonville.^33 Cells were transiently co-transfected with syn-luc1 and syn-luc2 or transfected with luciferase alone using Superfect transfection reagent (Qiagen, 301305) according to the manufacturer's instructions. Twenty-four hours after transfection, cells were plated on a 96-well microplate at 60,000 cells per well. Twenty-four hours after plating, cells were treated with drugs or vehicle control. Following 24 hours of treatment, cells were washed 1 time with PBS and bioluminescence was measured using an automated CLARIOstar plate reader (Mandel, 430-0505). Cell permeable, native coelenterazine was used as the Gaussia luciferase substrate. Lyophilized coelenterazine (Nanolight, 303-500) was reconstituted in NanoFuel Solvent (Nanolight, 399-1), then diluted in PBS to 16.6 μg/mL, and dispensed per well to a final concentration of 20 μM). The bioluminescent signal generated by the luciferase enzyme was assessed at 470 nm over 5 seconds. Raw luminescence units were normalized to the DMSO vehicle control of each 96-well microplate. To assess cell viability, H4 neuroglioma cells were prepared and treated as described above and, 1 hour prior to viability analysis, cells were treated with PrestoBlue viability reagent (ThermoFisher, A13261) according to the manufacturer's instructions. Fluorescence was automatically measured using a CLARIOstar plate reader (Mandel, 430-0505) and then normalized to the fluorescence measure of the DMSO vehicle control.

[4] = system: control GFP C. elegans; test: Coiler score and locomotion of control GFP C. elegans; assay type: in vivo, Caenorhabditis elegans
Description: Animals were synchronized by isolating eggs using alkaline hypochlorite treatment and hatching overnight. Larvae were plated onto NGM agar plates with OP50 and grown for 4 days before recording locomotion. For individual C. elegans recordings, a single adult animal was randomly picked, washed for 1 to 2 minutes in M9 buffer, and then transferred to a fresh NGM plate without food for imaging. Video images were acquired (2 frames per second) for up to 6 minutes using a sCMOS camera (pco.edge, PCO) mounted on a stereomicroscope (Olympus MVX10 MacroView) controlled using the μManager software.^55 A total of 40 individual animals were imaged for each strain. For C. elegans population recordings, ten adult animals were randomly removed using an eyelash pick, washed for 1 minute in M9 buffer, and then transferred to a fresh NGM plate without food, with a ring of copper sulfate solution (150 mM) around the area of recording (a chemorepellent to keep the animals in the recording frame). Exploratory locomotion was recorded using a CCD camera (GX1920, Allied Vision) which was attached to a dissecting stereomicroscope (Leica M165C, 1.0× PlanApo lens). […] Using ImageJ, the displacement, perimeter, and area of each animal was calculated, from which a circularity value was computed using the following formula: circularity=4π(A/P^2), where A is the area of the animal's body and P is the perimeter of the animal's body (both expressed in arbitrary pixel units). […] Using MATLAB (Mathworks), various behavioural metrics including the coiler score were calculated, which is the percentage of frames with a circularity value >0.6. Speed was automatically computed from the ImageJ based WrmTrk plugin as the distance travelled by each animal (in pixels) over the amount of time that it was tracked (in seconds).56 Average speed was determined by calculating the weighted average of each tracked animal's speed within a single population of animals. […]
C. elegans were grown and maintained as previously described (Examples 1-6). […] After 72 hours of drug treatment, animals were randomly picked, washed, and recorded. […]

Nc1nc(NC2CC2)c2ncn([C@H]3C=C[C@@H](CO)C3)c2n1 [Abacavir, abacavir]
YFP fluorescence compared with vehicle control [1]: significantly reduced
locomotor speed ([2]; 100 μM of drug): No significant differences
effect on coiling / coiler score ([2]; 100 μM, 72 hr, vs DMSO vehicle): significantly reduced
changes in the activity of full-length Gaussia luciferase alone [3]: No statistically significant changes
speed of GFP worms ([4]; 100 μM): no differences
coiling / coiler score of control GFP animals ([4]; 100 μM of drug): no differences
